Source: PubChem BioAssay AID977614 (Broad Institute, 2014)
The source made the active and inactive calls.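 How the source made its calls: active means parasite count per well reduced by over 3 SD from the mean, with host cell number above 80% of untreated; inactive means the rest.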

What follows are molecules tested on L. donovani amastigotes in THP-1 macrophages, DAPI imaging, 72 h (assay: L. donovani intracellular amastigote growth inhibitors, imaging, THP-1 host macrophages, single concentration (AID 977614);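 further: signal is the parasite per host cell ratio from DAPI stained kinetoplasts and nuclei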).
With `COCC(=O)N1[C@H](CO)[C@H]2c3ccccc3N(C(=O)c3cccnc3)C[C@H]21` the AC50 was > 10 µM (inactive).
In the case of `O=C(CC(F)(F)F)N1C[C@@H]2[C@H](c3ccccc31)[C@H](CO)N2CC1CCOCC1`, the AC50 is reported as > 10 µM (inactive).
With `C[C@@H]1CN([C@H](C)CO)C(=O)CCCn2nncc2CO[C@@H]1CN(C)C(=O)Nc1ccccc1C(F)(F)F` the AC50 was > 10 µM (inactive).
In the case of `C[C@@H]1CN([C@H](C)CO)C(=O)CCCn2nncc2CO[C@@H]1CN(C)Cc1ccc2cccnc2c1`, the AC50 is reported as > 10 µM (inactive).
`CC(C)N(C[C@@H]1[C@@H](c2ccccc2)[C@H](CO)N1S(C)(=O)=O)C(=O)CN(C)C` was tested, and the AC50 was > 10 µM (inactive).
With `Cc1ccc(S(=O)(=O)N2C[C@H]3[C@@H](c4ccccc42)[C@H](CO)N3Cc2cccnc2)cc1` the AC50 was > 10 µM (inactive).
`C/C=C/c1ccc([C@H]2[C@@H](CN(C)C(C)=O)N(C(=O)NC(C)C)[C@H]2CO)cc1` was tested, and the AC50 was > 10 µM (inactive).
`COc1ccc(NC(=O)N2C[C@H]3[C@@H](c4ccccc42)[C@@H](CO)N3Cc2ccccn2)cc1` was tested, and the AC50 was > 10 µM (inactive).
For `CCN(C[C@H]1[C@H](c2ccc(-c3cccnc3)cc2)[C@@H](CO)N1C(C)=O)C(C)=O`, the AC50 was > 10 µM (inactive).
For `C[C@H]1CN([C@@H](C)CO)C(=O)CCCn2nncc2CO[C@@H]1CN(C)C(=O)Nc1ccc2c(c1)OCCO2`, the AC50 was > 10 µM (inactive).
In the case of `CCCC#Cc1ccc([C@H]2[C@@H](CO)N(C(=O)NC(C)C)[C@H]2CNC(C)=O)cc1`, the AC50 is reported as > 10 µM (inactive).
`CNC[C@H]1OCc2cn(nn2)CCCC(=O)N([C@H](C)CO)C[C@@H]1C` was tested, and the AC50 was > 10 µM (inactive).
`C[C@@H]1CN([C@H](C)CO)C(=O)CCCn2cc(nn2)CO[C@H]1CN(C)C(=O)Nc1cccc(C(F)(F)F)c1` was tested, and the AC50 was > 10 µM (inactive).
In the case of `O=C(CC(F)(F)F)N1C[C@@H]2[C@H](c3ccccc31)[C@H](CO)N2C(=O)C1CCCCC1`, the AC50 is reported as > 10 µM (inactive).
With `CC(C)NC(=O)N1[C@H](CO)[C@@H]2c3ccccc3NC[C@@H]21` the AC50 was > 10 µM (inactive).
In the case of `CN(C[C@H]1[C@@H](c2ccccc2)[C@H](CO)N1Cc1ccccn1)S(C)(=O)=O`, the AC50 is reported as > 10 µM (inactive).
For `CCC(=O)N1[C@@H](CO)[C@H](c2ccccc2)[C@@H]1CN(C)C(=O)CN1CCOCC1`, the AC50 was > 10 µM (inactive).
In the case of `O=C(Cc1ccccn1)N1[C@H](CO)[C@H]2c3ccccc3NC[C@H]21`, the AC50 is reported as > 10 µM (inactive).
In the case of `O=C(Nc1cccc(F)c1)N1C[C@H]2[C@@H](c3ccccc31)[C@@H](CO)N2C(=O)Cc1ccccn1`, the AC50 is reported as > 10 µM (inactive).
In the case of `O=C(c1ccncc1)N1C[C@@H]2[C@H](c3ccccc31)[C@H](CO)N2C(=O)CN1CCOCC1`, the AC50 is reported as > 10 µM (inactive).
For `CCN(C[C@@H]1[C@@H](c2ccc(C3=CCCCC3)cc2)[C@@H](CO)N1CC1CC1)C(C)=O`, the AC50 was > 10 µM (inactive).
With `C[C@@H]1CN([C@@H](C)CO)C(=O)CCCn2cc(nn2)CO[C@@H]1CN(C)C(=O)Nc1ccc2c(c1)OCO2` the AC50 was > 10 µM (inactive).
In the case of `C[C@@H]1CN([C@@H](C)CO)C(=O)CCCn2nncc2CO[C@H]1CN(C)C(=O)Nc1ccc(-c2cccs2)cc1`, the AC50 is reported as > 10 µM (inactive).
In the case of `CC(C)N(C[C@H]1[C@@H](c2ccccc2)[C@H](CO)N1S(C)(=O)=O)C(=O)CN(C)C`, the AC50 is reported as > 10 µM (inactive).
In the case of `CC(C)N(C[C@H]1[C@H](c2ccccc2)[C@@H](CO)N1S(C)(=O)=O)C(=O)CN(C)C`, the AC50 is reported as > 10 µM (inactive).
In the case of `COCC(=O)N1C[C@@H]2[C@H](c3ccccc31)[C@@H](CO)N2C(=O)c1ccccc1F`, the AC50 is reported as > 10 µM (inactive).
In the case of `O=C(c1ccccn1)N1C[C@H]2[C@@H](c3ccccc31)[C@@H](CO)N2C(=O)Nc1ccccc1Cl`, the AC50 is reported as > 10 µM (inactive).
In the case of `CC(=O)N1[C@H](CN(CC2CCC2)C(=O)CN(C)C)[C@@H](c2ccccc2)[C@@H]1CO`, the AC50 is reported as > 10 µM (inactive).
For `Cc1noc(C)c1S(=O)(=O)N(C)C[C@@H]1OCc2cn(nn2)CCCC(=O)N([C@H](C)CO)C[C@H]1C`, the AC50 was > 10 µM (inactive).
In the case of `C[C@H]1CN([C@@H](C)CO)C(=O)CCCn2nncc2CO[C@@H]1CN(C)Cc1cccc(C(F)(F)F)c1`, the AC50 is reported as > 10 µM (inactive).
With `OC[C@H]1[C@H]2c3ccccc3NC[C@H]2N1Cc1cccnc1` the AC50 was > 10 µM (inactive).
For `CCCNC(=O)N1[C@@H]2CN(C(=O)Nc3cccc(Cl)c3)c3ccccc3[C@@H]2[C@@H]1CO`, the AC50 was > 10 µM (inactive).
For `O=C(Nc1ccccc1F)N1C[C@H]2[C@@H](c3ccccc31)[C@@H](CO)N2C(=O)Cc1cccnc1`, the AC50 was > 10 µM (inactive).
With `CCC(=O)N(CC(C)C)C[C@@H]1[C@@H](c2ccccc2)[C@H](CO)N1C(=O)C1CCC1` the AC50 was > 10 µM (inactive).
With `O=C(c1cccc(F)c1)N1C[C@H]2[C@@H](c3ccccc31)[C@@H](CO)N2Cc1cocn1` the AC50 was > 10 µM (inactive).
With `CNC[C@H]1OCc2cnnn2CCCC(=O)N([C@@H](C)CO)C[C@@H]1C` the AC50 was > 10 µM (inactive).
With `CC(=O)N1[C@@H](CO)[C@H](c2ccccc2)[C@@H]1CN(CC(C)C)C(=O)c1ccccn1` the AC50 was > 10 µM (inactive).
`CCCNC(=O)N1C[C@@H]2[C@H](c3ccccc31)[C@H](CO)N2C(=O)Nc1ccccc1F` was tested, and the AC50 was > 10 µM (inactive).
In the case of `CCC(=O)N1[C@H](CO)[C@H]2c3ccccc3N(S(=O)(=O)c3ccc(F)cc3)C[C@H]21`, the AC50 is reported as > 10 µM (inactive).
With `C[C@@H]1CN([C@H](C)CO)C(=O)CCCn2nncc2CO[C@H]1CN(C)C(=O)Nc1cccc(Oc2ccccn2)c1` the AC50 was > 10 µM (inactive).
With `OC[C@H]1[C@@H]2c3ccccc3NC[C@@H]2N1Cc1cccnc1` the AC50 was > 10 µM (inactive).
`CN1C[C@@H]2[C@H](c3ccccc31)[C@H](CO)N2C(=O)c1cccnc1` was tested, and the AC50 was > 10 µM (inactive).
In the case of `CC(=O)N1[C@H](CO)[C@@H](c2ccc(C3=CCCCC3)cc2)[C@@H]1CNC(=O)CN(C)C`, the AC50 is reported as > 10 µM (inactive).
For `O=C(Nc1ccccc1F)N1C[C@@H]2[C@H](c3ccccc31)[C@@H](CO)N2C(=O)Cc1cccnc1`, the AC50 was > 10 µM (inactive).
For `C[C@H](CO)N1C[C@H](C)[C@H](CN(C)C(=O)Nc2cccc(C(F)(F)F)c2)OCc2cn(nn2)CCCC1=O`, the AC50 was > 10 µM (inactive).
For `C[C@H]1CN([C@@H](C)CO)C(=O)CCCn2nncc2CO[C@H]1CN(C)C(=O)c1ccc(N2CCN(C)CC2)cc1`, the AC50 was > 10 µM (inactive).
With `CCN(C[C@@H]1N[C@@H](CO)[C@@H]1c1ccccc1)C(=O)c1ccncc1` the AC50 was > 10 µM (inactive).
For `CNC[C@@H]1OCc2cnnn2CCCC(=O)N([C@@H](C)CO)C[C@@H]1C`, the AC50 was > 10 µM (inactive).
`C[C@@H]1CN([C@H](C)CO)C(=O)CCCn2nncc2CO[C@H]1CN(C)CC1CCCCC1` was tested, and the AC50 was > 10 µM (inactive).
In the case of `COCC(=O)NC[C@@H]1[C@H](c2ccccc2)[C@@H](CO)N1C(=O)c1ccccc1`, the AC50 is reported as > 10 µM (inactive).
`C[C@@H]1CN([C@H](C)CO)C(=O)CCCn2nncc2CO[C@H]1CN(C)C(=O)CCC(F)(F)F` was tested, and the AC50 was > 10 µM (inactive).
With `Cc1noc(C)c1NC(=O)N(C)C[C@H]1OCc2cnnn2CCCC(=O)N([C@H](C)CO)C[C@@H]1C` the AC50 was > 10 µM (inactive).
`CN1[C@@H](CO)[C@@H]2c3ccccc3NC[C@@H]21` was tested, and the AC50 was > 10 µM (inactive).
`C[C@@H]1CN([C@H](C)CO)C(=O)CCCn2nncc2CO[C@@H]1CN(C)S(=O)(=O)c1cn(C)cn1` was tested, and the AC50 was > 10 µM (inactive).
With `COCCN(C[C@H]1N[C@H](CO)[C@@H]1c1ccccc1)C(=O)NC1CCCC1` the AC50 was > 10 µM (inactive).
